Earlier results, collected in PMC6340882, “Targeting protein kinase CK2 and CDK4/6 pathways with a multi-kinase inhibitor ON108110 suppresses pro-survival signaling and growth in mantle cell lymphoma and T-acute lymphoblastic leukemia” (Oncotarget, 2018).

System: mantle cell lymphoma
Set-up: method as in PMID 22383795
Conditions: monotherapy for MCL, patients; cited from earlier work

Compound: CC(=O)c1c(C)c2cnc(Nc3ccc(N4CCNCC4)cn3)nc2n(C2CCCC2)c1=O [Palbociclib]
- overall response rate: 18%
